The source of these data is publication PMC9867442, “Indole Derivatives Bearing Imidazole, Benzothiazole-2-Thione or Benzoxazole-2-Thione Moieties—Synthesis, Structure and Evaluation of Their Cytoprotective, Antioxidant, Antibacterial and Fungicidal Activities” (Molecules, 2023).

The subject of one series is Micrococcus luteus. Description: Antibacterial well-diffusion method. The series is classed as cell-based. The settings on record: Micrococus luteus, 0.1 mL of compound in DMSO, 48 h, 27 °C. The protocol: (§1) The antimicrobial properties of compounds were determined against selected bacteria: Micrococcus luteus, Bacillus subtilis, Escherichia coli and Pseudomonas fluorescens which came from the collection of Pure Cultures of the Facility of Microbiology of the Department of Soil Science and Microbiology of the Poznan University of Life Sciences. The well-diffusion method was used to evaluate the antimicrobial properties of compounds. 6 mL each of liquidized broth medium was poured into sterile Petri dishes and allowed to solidify. After which, two sterile glass rings with a diameter of 0.5 cm were placed on the surface of each plate. Then 20 mL each of liquid broth medium containing suspensions of the tested bacterial strains at a density of 10^7 cells/cm3, obtained from 48-h cultures on broth […], was introduced. After the medium solidified, the glass rings were removed with a pencil, obtaining two wells on each plate. 0.1 mL of compound dissolved in pure dimethyl sulphoxide was introduced into one well, and 0.1 mL of pure dimethyl sulphoxide was introduced into the other well, which was as a control. Each compound was tested in four replicates. The plates were incubated for 48 h in a thermostat at 27 °C for M. luteus, B. subtilis and P. fluorescens cultures, and the E. coli culture at 37 °C. At the end of the incubation, the diameters of growth inhibition of the tested strains were measured using calipers.
For orientation: A growth-free zone around the sample is the usual read-out of agar diffusion tests.

For a further series, the system named is Escherichia coli. As to the kind of experiment: Antibacterial well-diffusion method. The series is classed as cell-based. As to conditions: 0.1 mL of compound in DMSO, 48 h, 37 °C. The protocol: as §1
A further series concerns Bacillus subtilis. Description: Antibacterial well-diffusion method. As to conditions: 0.1 mL of compound in DMSO, 48 h, 27 °C. The series is classed as cell-based. The protocol: as §1
For a further series, the system named is Pseudomonas fluorescens. As to the kind of experiment: Antibacterial well-diffusion method. Format: cell-based. The settings on record: 0.1 mL of compound in DMSO, 48 h, 27 °C. The protocol:
as §1

Series [1] is described as follows: Ferrous ions (Fe2+) chelating activity (ferrozine). The settings on record: 0.1 mg/mL, 10 min, room temperature. Here is the method: Ferrous ions (Fe^2+) chelating activity was evaluated by inhibition of the formation of Fe^2+-ferrozine complex after incubation of the compounds tested with Fe^2+. The Fe^2+-chelating ability of compounds tested was determined by the absorbance of the ferrous ion-ferrozine complex at 562 nm. In brief, 0.1 mg/mL concentration of the compounds tested in 0.2 mL ethyl alcohol were added to a solution of 0.6 mM FeCl2 (0.05 mL). EDTA (ethylenediaminetetraacetic acid) was used as the standard EDTA chelating agent. The reaction was started by the addition of 5 mM ferrozine (0.05 mL) in ethyl alcohol and shaken vigorously immediately. The samples were stored for 10 min at room temperature (~22 °C). Following incubation, the absorbance (Abs) of the solutions was measured at 562 nm in a spectrophotometer. The percentage of inhibition of ferrozine—Fe^2+ complex formation was calculated using the equation: Fe^2+ chelating effect (%) = [1 − (Abs1/Abs0)] × 100% where Abs0 is the absorbance of the sample without the tested compound and Abs1 is the absorbance in the presence of the compound tested. Each sample was made in triplicate, and three independent experiments were performed.

A further series relates to Coniophora puteana (Cp). Description: Antifungal agar-plate method. Format: cell-based. The settings on record: Coniophora puteana, read-out: Antifungal activity (inhibition of mycelial growth); for inhibition of growth at 0.0001 %: concentration 0.0001%; for inhibition of growth at 0.001 %: concentration 0.001%; for inhibition of growth at 0.01 %: concentration 0.01%; for inhibition of growth at 0.1 %: concentration 0.1%. The protocol:
(§2) Fungal strains: Coriolus versicolor (Cv), Poria placenta (Pp), Coniophora puteana (Cp) and Gloeophyllum trabeum (Gt) were used as a test organism for the experimental determination of the antifungal activity of 1–11. The fungus were obtained from the collection of the Department of Wood Chemical Technology, Faculty of Forestry and Wood Technology, Poznań, University of Life Sciences, Poland. The fungal growth rates were measured in 90 mm-diameter plastic dishes using the agar-plate method, described by Ważny and Thorton. Five concentrations of gramine and its derivatives in the range of 0.1% to 0.00001% were studied. The compound was applied on the agar (2% agar and 5% malt-extract) prepared on the Petri dish and previously autoclaved. The combination of the compound and fungus was repeated three times. Given sample was centrally inoculated with a 5 mm diameter disc taken from the submargin of 5-day-old malt agar plates. The plates were incubated in darkness at 21 ± 2 °C and 70 ± 5% relative air humidity. The growth duration was determined by the total coverage of the reference plate. The radius of the area covered by the fungus compared with the reference agar plate was employed to calculate the effective doses, ED50, of preservative concentrations retarding the fungal growth rate by 50%.

In the next series the test system is Coriolus versicolor (Cv). As to the kind of experiment: Antifungal agar-plate method. Format: cell-based. The settings on record: Trametes versicolor, read-out: Antifungal activity (inhibition of mycelial growth); for inhibition of growth at 0.0001 %: concentration 0.0001%; for inhibition of growth at 0.001 %: concentration 0.001%; for inhibition of growth at 0.01 %: concentration 0.01%; for inhibition of growth at 0.1 %: concentration 0.1%. Here is the method: as §2

Another series relates to Poria placenta (Pp). As to the kind of experiment: Antifungal agar-plate method. The series is classed as cell-based. The settings on record: read-out: Antifungal activity (inhibition of mycelial growth); for inhibition of growth at 0.0001 %: concentration 0.0001%; for inhibition of growth at 0.001 %: concentration 0.001%; for inhibition of growth at 0.01 %: concentration 0.01%; for inhibition of growth at 0.1 %: concentration 0.1%. Here is the method: as §2

Series [2] has as its system Gloeophyllum trabeum (Gt). As to the kind of experiment: Antifungal agar-plate method. The series is classed as cell-based. As to conditions: Gloeophyllum trabeum, read-out: Antifungal activity (inhibition of mycelial growth); for inhibition of growth at 0.0001 %: concentration 0.0001%; for inhibition of growth at 0.001 %: concentration 0.001%; for inhibition of growth at 0.01 %: concentration 0.01%; for inhibition of growth at 0.1 %: concentration 0.1%. The protocol:
as §2

For series [3], the system named is human red blood cells (RBC). Description: Hemolysis assay under the compounds tested. Format: cell-based. The settings on record: 0.1 mg/mL, 60 min, 37 °C, PBS pH 7.4. The protocol:
The erythrocytes were washed three times (3000 rpm, 10 min, +4 °C) in 7.4 pH phosphate buffered saline (PBS: 137 mM NaCl, 2.7 mM KCl, 10 mM Na2HPO4, 1.76 mM KH2PO4) supplemented with 10 mM glucose. After washing, RBC were suspended in the PBS buffer at 1.65 × 10^9 cells/mL, stored at +4 °C, and used within 5 h.
The cytotoxic activity of the compounds tested was determined by a standard hemolytic assay according to Mrówczyńska and Hägerstrand [57]. Briefly, RBC (1.65 × 10^8 cells/mL, ~1.5% hematocrit) were incubated in PBS buffer (7.4 pH) supplemented with 10 mM glucose and containing compounds tested (0.1 mg/mL) for 60 min at 37 °C in a shaking water bath. Samples with RBC incubated in PBS without compounds tested were taken as the control. Each sample was repeated three times, and the experiments were repeated 3 times with RBC from different donors. After incubation, the RBC suspensions were centrifuged (3000 rpm, 10 min), and the degree of hemolysis was estimated by measuring the absorbance (Ab) of the supernatant at 540 nm. The results were expressed as a percentage (%) of hemolysis which was determined using the following equation:Hemolysis (%) = (sample Ab/positive control Ab) × 100% were positive control is Ab of supernatant of RBC in ice-cold H2O.

In the case of `c1ccc2c(c1)ncn2Cc1c[nH]c2ccccc12` [Compound 9, 1-((1H-indol-3-yl)methyl)-1H-benzo[d]imidazole], the melting point – broadly, the temperature, or range, at which the solid turns liquid – was in the range of 214 to 216 °C. Also, in the series with Micrococcus luteus, the “Zone of Growth Inhibition” value is on record as 4.3 mm. In the series with Escherichia coli, the “Zone of Growth Inhibition” value was determined as 3 mm. Moreover, the “Zone of Growth Inhibition” value with Bacillus subtilis turned out to be 2.7 mm. Also, the “Zone of Growth Inhibition” value in the series with Pseudomonas fluorescens turned out to be 0 mm. In [1], the Chelating activity worked out at 4%. Further, in the series with Coniophora puteana (Cp), the inhibition of growth (in general, the change of the read-out against control, counted positive when it falls) at 0.0001 % came to 0%; the inhibition of growth at 0.001 % is 0%; the inhibition of growth at 0.01 % worked out at 40%; the inhibition of growth at 0.1 % is 100%. Further, in the series with Coriolus versicolor (Cv), the inhibition of growth at 0.0001 % was 0%, the inhibition of growth at 0.001 % was found to be 6%, the inhibition of growth at 0.01 % amounted to 44% and the inhibition of growth at 0.1 % is 100%. Further, in the series on Poria placenta (Pp), the inhibition of growth at 0.0001 % was determined as 0%, the inhibition of growth at 0.001 % came out at 23%, the inhibition of growth at 0.01 % is 37% and the inhibition of growth at 0.1 % was 100%. Further, in [2], the inhibition of growth at 0.0001 % worked out at 17%, the inhibition of growth at 0.001 % was found to be 28%, the inhibition of growth at 0.01 % amounted to 48% and the inhibition of growth at 0.1 % amounted to 100%. In [3], this compound had a Hemolytic activity of 23%.

In turn, `Cc1nccn1Cc1c[nH]c2ccccc12` [Compound 3, 3-((2-methyl-1H-imidazol-1-yl)methyl)-1H-indole] yielded a melting point of 173 to 174 °C. Moreover, in the series with Micrococcus luteus, the “Zone of Growth Inhibition” value is 3 mm. The “Zone of Growth Inhibition” value with Escherichia coli came out at 1 mm. Moreover, the “Zone of Growth Inhibition” value with Bacillus subtilis was determined as 1 mm. Besides, the “Zone of Growth Inhibition” value in the series with Pseudomonas fluorescens is reported as 16 mm. In the series on Coniophora puteana (Cp), the inhibition of growth at 0.0001 % came to 0%, the inhibition of growth at 0.001 % amounted to 0%, the inhibition of growth at 0.01 % came out at 48% and the inhibition of growth at 0.1 % was found to be 100%. Further, in the series with Coriolus versicolor (Cv), the inhibition of growth at 0.0001 % amounted to 0%, the inhibition of growth at 0.001 % came out at 1%, the inhibition of growth at 0.01 % is 35% and the inhibition of growth at 0.1 % turned out to be 100%. Further, in the series with Poria placenta (Pp), the inhibition of growth at 0.0001 % was 0%, the inhibition of growth at 0.001 % is 0%, the inhibition of growth at 0.01 % is 48% and the inhibition of growth at 0.1 % is 100%. In [2], the inhibition of growth at 0.0001 % was found to be 15%, the inhibition of growth at 0.001 % amounted to 19%, the inhibition of growth at 0.01 % was determined as 44% and the inhibition of growth at 0.1 % came out at 100%. Moreover, the Hemolytic activity in series [3] was found to be 3.6%.
